Assay results as given in publication PMC9331544, “Molecular Physicochemical Properties of Selected Pesticides as Predictive Factors for Oxidative Stress and Apoptosis-Dependent Cell Death in Caco-2 and HepG2 Cells” (International Journal of Molecular Sciences, 2022).
“Also recorded” adds a separate entry of the source. Where two headings read alike, the source gives them in different places.

Key:
Caco-2 cells [1] = test: Apoptosis/necrosis, Annexin-V-FITC/PI double staining, flow cytometry; type: cell-based, human
Description: (§1) The samples where then incubated for 20 min at room temperature. After this period, 5 μL of propidium iodide (PI; at 50 μg/mL) solution were added to each sample 3 min before acquisition.

HepG2 cells [2] = test: as above; type: cell-based, human; settings: HepG2, 24 h, tested concentrations; listed as IMZ
Description: as §1

Caco-2 cells [3] = test system: Caco-2 cells; parameters: method as in doi:10.1016/j.envpol.2020.114660; settings: Caco-2, 30 µg/mL (~100 µM), fluorescence microscopy; ref [34]; cited from earlier work
Caco-2 cells [4] = test: Alamar Blue cell viability/cytotoxicity assay; type: cell-based, human
Description: (§2) In this study, to assess the cytotoxic activity of GLY, IMD, and IMZ, human epithelial colorectal adenocarcinoma (Caco-2), cell lines service (CLS), (Eppelheim, Germany) and human hepatocellular carcinoma (HepG2) (ATCC, Rockville, Maryland, USA) cells were used. Cells were cultured in complete culture media (Dulbecco’s Modified Eagle Media (DMEM), supplemented with 1 mM L-glutamine, 10% (v/v) foetal bovine serum (FBS), and antibiotics (penicillin at 100 U/mL, and streptomycin at 100 μg/mL)) and maintained at 5% CO2/95% air; 37 °C, controlled humidity, in an incubator. Cells were grown in T25 culture flasks to near confluence. Then, these adherent cells were treated with trypsin (trypsin-EDTA), for detachment and subculture, which was stopped using complete culture medium (1:1, trypsin:culture media) as soon as cells were detached (about 6 and 8 minutes of trypsin treatment for HepG2 and Caco-2 cells, respectively). Detached cells were gently re-suspended with a Pasteur pipette and then a sample was counted using an automated cell counter (TC10™, BIORAD, Portugal). A suspension of cells in fresh culture media, at 5 × 10^4 cells/mL was prepared to seed into 96-well microplates (100 µL/well). After seeding, cells were placed in the incubator for 48 h (to adhere and stabilize) before being used, for other details see [66, 67].
(§3) Cell viability was assessed using the Alamar Blue® (AB) assay, after exposure to the pesticides. In summary, cells seeded into 96-well microplates were subjected to various concentrations of the pesticides (GLY: 0–1 mM; IMD: 0–1 mM; IMZ: 0–0.3 mM). To prepare the test solutions, the appropriate volume of the pesticide stock solution was diluted in FBS-free culture media just before its application to the cells. Stock solution of GLY was prepared in water (at 40 mM), and stock solutions of IMD and IMZ were prepared in DMSO (at 20 mM). After 24 h or 48 h of exposure, the test solutions were removed and the Alamar Blue solution (100 µL/well; 10% (v/v) in FBS-free medium) was immediately added to the cells, followed by a further 5 h incubation. The absorbance was then read at 570 and 620 nm using a microplate reader (Multiskan EX; MTX Lab Systems, Inc., Bradenton, FL, USA) and the percentage of the AB reduction was calculated according to the manufacturer’s instructions, as described before. Cell viability, at each condition, was calculated and expressed as percentage of control cells (non-exposed cells).
(§4) The concentrations needed to reduce cell viability by 50% (IC50) were calculated from three independent experiments (each one performed in quadruplicates), as described.

HepG2 cells [5] = test: Alamar Blue cell viability/cytotoxicity assay; type: cell-based, human; settings: HepG2
Description: as §2, §3, §4

[6] = Alamar Blue cell viability/cytotoxicity assay; type: cell-based, human; settings: human, mean ± SD (n = 4), read-out: IC50 of pesticide-induced cytotoxicity
Description: as §2, §3, §4

Caco-2 cells [7] = test: Lipid peroxidation, DHPE-FITC probe, flow cytometry; type: cell-based, human; settings: Caco-2, 24 h, tested concentrations
Description: (§5) Lipid peroxidation was evaluated using the DHPE-FITC probe. Cells re-suspended in PBS (see Section 3.3.1) were incubated with 20 μM DHPE-FITC, for 20 min in the dark at room temperature (as describe).

HepG2 cells [8] = test: as above; type: cell-based, human; settings: HepG2, 24 h, tested concentrations
Description: as §5

In the case of `C=CCOC(Cn1ccnc1)c1ccc(Cl)cc1Cl` (stereo not drawn) [Imazalil, imazalil], the “apoptosis/necrosis induction (in words)” value (Caco-2 cells [1]; Caco-2, 24 h, tested concentrations, listed as IMZ) is reported as “dose-dependent increase in late apoptosis”, the cells in necrosis (Caco-2 cells [1]; Caco-2, highest concentration (250 μM), 24 h, Figure 6B) is reported as ~ 23% and the “apoptosis/necrosis induction (in words)” value (HepG2 cells [2]) is reported as “dose-dependently increased apoptosis; also recorded: no necrotic events recorded”. The “ROS content (in words)” value (Caco-2 cells [3]) was “increase in ROS content”, the “IC50 for Caco-2 cells relative to HepG2 cells” value (Caco-2 cells [4]; 24 h exposure) was 2.7 fold and the “IC50 for Caco-2 cells relative to HepG2 cells” value (Caco-2 cells [4]; 48 h exposure) was 4 fold. The “IC50 at 24 h relative to IC50 at 48 h” value (Caco-2 cells [4]; Caco-2) was 1.35 fold, the IC50 (Caco-2 cells [4]; Caco-2, 24 h exposure, mean ± SD (n = 4), read-out: IC50 of pesticide-induced cytotoxicity) was 254 ± 3 µM and the “decrease in IC50 when doubling the exposure time (24 h to 48 h)” value (HepG2 cells [5]) was 2 fold. It also gave an IC50 at 24 h ([6]; Caco-2 cells, Caco-2, 24 h exposure) of 254 ± 3.37 µM, an IC50 at 48 h ([6]; Caco-2 cells, Caco-2, 48 h exposure) of 187 ± 2 µM and an IC50 at 24 h ([6]; HepG2 cells, HepG2, 24 h exposure) of 94 ± 12 µM. The IC50 at 48 h ([6]; HepG2 cells, HepG2, 48 h exposure) was 47 ± 3 µM, the “lipid peroxidation (LP) vs control (in words)” value (Caco-2 cells [7]) was “induced significant LP” and the “lipid peroxidation (LP) vs control (in words)” value (HepG2 cells [8]) was “did not increase lipid peroxidation”.
